Test results published in patent EP2931723B1, “NEW BICYCLIC COMPOUNDS AND THEIR USE AS ANTIBACTERIAL AGENTS AND -LACTAMASE INHIBITORS” (Fedora Pharmaceuticals Inc., priority 2012, dated 2014).

Columns and labels:
Test in all cases: MIC, antibacterial and synergistic activity
Type in all cases: cell-based
E. coli JMI 10767 [1] = conditions: E. coli JMI 10767 (Wt)
K. pneumo JMI 2697 = K. pneumo JMI 2697 (IMP-4 (Cpase))
Method: In the Tables 10 - 12, compounds herein disclosed were tested in combination with various antibiotics against metallo β-lactamase producing bacteria.

E. coli JMI 11103 = system: E. coli JMI 11103
K. pneumo JMI 2673 [2] = conditions: K. pneumo JMI 2673 (CTX-M14 (ESBL)); substance alone
E. coli JMI 10770 [3] = conditions: Escherichia coli, JMI10770; E. coli JMI 10770 (CTX-M15 (Hyper ESBL)); substance alone
K. pneumo JMI 2681 = K. pneumo JMI 2681 (Oxa-48 (Cpase))
E. coli JMI 10768 [4] = conditions: E. coli JMI 10768 (CTX-M15 (Weak ESBL)); Meropenem + inhibitor at 4 µg/mL
K. pneumo JMI 2674 [5] = conditions: K. pneumo JMI 2674 (CTX-M15 (ESBL)); substance alone
K. pneumo JMI 4106 = K. pneumo JMI 4106 (KPC-3, TEM-1, SHV-12, SHV-141)
K.pneumo JMI 4109 [6] = conditions: K.pneumo JMI 4109 (SHV-1, SHV-12)
Method: (§1) In the Tables 10 - 12, compounds herein disclosed were tested in combination with various antibiotics against metallo β-lactamase producing bacteria. Table 3: Synergy of the inhibitor Ex. 1 (4 µg/mL) in combination with antibiotics

K. pneumo JMI 4088 [7] = conditions: K. pneumo JMI 4088 (KPC-3 (Cpase))
Method: as §1

P. aerug JMI 2686 [8] = conditions: P. aerug JMI 2686 (KPC-2 (Cpase))
Method: as §1

K. pneumo JMI 2699 = K. pneumo JMI 2699 (VIM-1, CTX-M3)
Method: as §1

E. coli JMI 2671 = system: E. coli JMI 2671
Method: as §1

K. pneumo JMI 2674 [9] = conditions: K. pneumo JMI 2674 (CTX-M15 (ESBL))
Method: as §1

E. coli JMI 10770 [10] = conditions: E. coli JMI 10770 (CTX-M15 (Hyper ESBL))
Method: as §1

E. coli JMI 10767 [11] = conditions: E. coli JMI 10767 (Wt); remark: listed apart in the source
Method: as §1

K. pneumo JMI 2673 [12] = conditions: K. pneumo JMI 2673 (CTX-M14 (ESBL))
Method: as §1

E. coli JMI 2665 = system: E. coli JMI 2665
Method: as §1

E. coli JMI 10768 [13] = conditions: E. coli JMI 10768 (CTX-M15 (Weak ESBL))
Method: as §1

K.pneumo JMI 4109 [14] = conditions: K.pneumo JMI 4109 (SHV-1, SHV-12); substance alone
P. aerug JMI 2686 [15] = conditions: P. aerug JMI 2686 (KPC-2 (Cpase)); substance alone
K. pneumo JMI 4088 [16] = conditions: K. pneumo JMI 4088 (KPC-3 (Cpase)); substance alone
[17] = Meropenem + inhibitor at 4 µg/mL
[18] = Aztreonam + inhibitor at 4 µg/mL
[19] = Ceftazidime + inhibitor at 4 µg/mL

Structure (SMILES): CCC(=O)NNC(=O)[C@@H]1CC[C@@H]2CN1C(=O)N2OS(=O)(=O)O [Ex. 8, (2S,5R)-7-oxo-N'-propanoyl-6-(sulfooxy)-1,6-diazabicyclo[3.2.1]octane-2-carbohydrazide]
- MIC Meropenem + inhibitor (E. coli JMI 10767 [1]; [17]): ≤0.0312 µg/mL
- MIC (E. coli JMI 10767 [1]; Escherichia coli, JMI10767, substance alone): > 16 µg/mL
- MIC Aztreonam + inhibitor (K. pneumo JMI 2697; [18]): ≤0.062 µg/mL
- MIC Ceftazidime + inhibitor (K. pneumo JMI 2697; [19]): 16 µg/mL
- MIC Meropenem + inhibitor (K. pneumo JMI 2697; [17]): 2 µg/mL
- MIC (K. pneumo JMI 2697; substance alone): > 16 µg/mL
- MIC Aztreonam + inhibitor (E. coli JMI 11103; E. coli JMI 11103 (CTX-M15 (Intermediate ESBL)), Aztreonam + inhibitor at 4 µg/mL): ≤0.062 µg/mL
- MIC Ceftazidime + inhibitor (E. coli JMI 11103; E. coli JMI 11103 (CTX-M15 (Intermediate ESBL)), Ceftazidime + inhibitor at 4 µg/mL): ≤0.25 µg/mL
- MIC Meropenem + inhibitor (E. coli JMI 11103; E. coli JMI 11103 (CTX-M15 (Intermediate ESBL)), Meropenem + inhibitor at 4 µg/mL): ≤0.0312 µg/mL
- MIC (E. coli JMI 11103; Escherichia coli, JMI11103, E. coli JMI 11103 (CTX-M15 (Intermediate ESBL)), substance alone): > 16 µg/mL
- MIC (K. pneumo JMI 2673 [2]): > 16 µg/mL
- MIC (E. coli JMI 10770 [3]): > 16 µg/mL
- MIC Aztreonam + inhibitor (K. pneumo JMI 2681; [18]): 0.125 µg/mL
- MIC Ceftazidime + inhibitor (K. pneumo JMI 2681; [19]): ≤0.25 µg/mL
- MIC Meropenem + inhibitor (K. pneumo JMI 2681; [17]): 0.5 µg/mL
- MIC (K. pneumo JMI 2681; substance alone, read-out: MIC): > 16 µg/mL
- MIC Meropenem + inhibitor (E. coli JMI 10768 [4]): ≤0.0312 µg/mL
- MIC (K. pneumo JMI 2674 [5]): > 16 µg/mL
- MIC Aztreonam + inhibitor (K. pneumo JMI 4106; [18]): ≤0.062 µg/mL
- MIC Ceftazidime + inhibitor (K. pneumo JMI 4106; [19]): ≤0.25 µg/mL
- MIC Meropenem + inhibitor (K. pneumo JMI 4106; [17]): ≤0.0312 µg/mL
- MIC (K. pneumo JMI 4106; substance alone, read-out: MIC): > 16 µg/mL
- MIC Aztreonam + inhibitor (K.pneumo JMI 4109 [6]; [18]): ≤0.062 µg/mL
- MIC Ceftazidime + inhibitor (K.pneumo JMI 4109 [6]; [19]): ≤0.25 µg/mL
- MIC Meropenem + inhibitor (K.pneumo JMI 4109 [6]; [17]): ≤0.0312 µg/mL
- MIC Aztreonam + inhibitor (K. pneumo JMI 4088 [7]; [18]): 0.125 µg/mL
- MIC Ceftazidime + inhibitor (K. pneumo JMI 4088 [7]; [19]): 0.5 µg/mL
- MIC Meropenem + inhibitor (K. pneumo JMI 4088 [7]; [17]): 0.5 µg/mL
- MIC Aztreonam + inhibitor (P. aerug JMI 2686 [8]; [18]): >4 µg/mL
- MIC Ceftazidime + inhibitor (P. aerug JMI 2686 [8]; [19]): >16 µg/mL
- MIC Meropenem + inhibitor (P. aerug JMI 2686 [8]; [17]): >2 µg/mL
- MIC Aztreonam + inhibitor (K. pneumo JMI 2699; [18]): ≤0.062 µg/mL
- MIC Ceftazidime + inhibitor (K. pneumo JMI 2699; [19]): ≤0.25 µg/mL
- MIC Meropenem + inhibitor (K. pneumo JMI 2699; [17]): 0.125 µg/mL
- MIC (K. pneumo JMI 2699; substance alone, read-out: MIC): > 16 µg/mL
- MIC Aztreonam + inhibitor (E. coli JMI 2671; E. coli JMI 2671 (VIM-19 (Cpase)), Aztreonam + inhibitor at 4 µg/mL): ≤0.062 µg/mL
- MIC Ceftazidime + inhibitor (E. coli JMI 2671; E. coli JMI 2671 (VIM-19 (Cpase)), Ceftazidime + inhibitor at 4 µg/mL): 0.5 µg/mL
- MIC Meropenem + inhibitor (E. coli JMI 2671; E. coli JMI 2671 (VIM-19 (Cpase)), Meropenem + inhibitor at 4 µg/mL): 1 µg/mL
- MIC (E. coli JMI 2671; Escherichia coli, JMI2671, E. coli JMI 2671 (VIM-19 (Cpase)), substance alone): > 16 µg/mL
- MIC Aztreonam + inhibitor (K. pneumo JMI 2674 [9]; [18]): ≤0.062 µg/mL
- MIC Ceftazidime + inhibitor (K. pneumo JMI 2674 [9]; [19]): ≤0.25 µg/mL
- MIC Meropenem + inhibitor (K. pneumo JMI 2674 [9]; [17]): 0.062 µg/mL
- MIC Aztreonam + inhibitor (E. coli JMI 10770 [10]; [18]): ≤0.062 µg/mL
- MIC Ceftazidime + inhibitor (E. coli JMI 10770 [10]; [19]): ≤0.25 µg/mL
- MIC Meropenem + inhibitor (E. coli JMI 10770 [10]; [17]): ≤0.0312 µg/mL
- MIC Aztreonam + inhibitor (E. coli JMI 10767 [11]; [18]): ≤0.062 µg/mL
- MIC Ceftazidime + inhibitor (E. coli JMI 10767 [11]; [19]): ≤0.25 µg/mL
- MIC Aztreonam + inhibitor (K. pneumo JMI 2673 [12]; [18]): ≤0.062 µg/mL
- MIC Ceftazidime + inhibitor (K. pneumo JMI 2673 [12]; [19]): ≤0.25 µg/mL
- MIC Meropenem + inhibitor (K. pneumo JMI 2673 [12]; [17]): ≤0.0312 µg/mL
- MIC Aztreonam + inhibitor (E. coli JMI 2665; E. coli JMI 2665 (CMY-2 (Plasmid Cpase)), Aztreonam + inhibitor at 4 µg/mL): ≤0.062 µg/mL
- MIC Ceftazidime + inhibitor (E. coli JMI 2665; E. coli JMI 2665 (CMY-2 (Plasmid Cpase)), Ceftazidime + inhibitor at 4 µg/mL): ≤0.25 µg/mL
- MIC (E. coli JMI 2665; Escherichia coli, JMI2665): 4 µg/mL
- MIC Aztreonam + inhibitor (E. coli JMI 10768 [13]; [18]): ≤0.062 µg/mL
- MIC Ceftazidime + inhibitor (E. coli JMI 10768 [13]; [19]): ≤0.25 µg/mL
- MIC (E. coli JMI 10768 [13]; Escherichia coli, JMI10768, substance alone): > 16 µg/mL
- MIC (K.pneumo JMI 4109 [14]): 4 µg/mL
- MIC (P. aerug JMI 2686 [15]): > 16 µg/mL
- MIC (K. pneumo JMI 4088 [16]): > 16 µg/mL
